These results are taken from patent US7488832B2, “Azolylacylguanidines as β-secretase inhibitors” (Wyeth, priority 2005, dated 2009).

SMILES strings stand for the structures.

Chain of human BACE1 (P56817 46-501): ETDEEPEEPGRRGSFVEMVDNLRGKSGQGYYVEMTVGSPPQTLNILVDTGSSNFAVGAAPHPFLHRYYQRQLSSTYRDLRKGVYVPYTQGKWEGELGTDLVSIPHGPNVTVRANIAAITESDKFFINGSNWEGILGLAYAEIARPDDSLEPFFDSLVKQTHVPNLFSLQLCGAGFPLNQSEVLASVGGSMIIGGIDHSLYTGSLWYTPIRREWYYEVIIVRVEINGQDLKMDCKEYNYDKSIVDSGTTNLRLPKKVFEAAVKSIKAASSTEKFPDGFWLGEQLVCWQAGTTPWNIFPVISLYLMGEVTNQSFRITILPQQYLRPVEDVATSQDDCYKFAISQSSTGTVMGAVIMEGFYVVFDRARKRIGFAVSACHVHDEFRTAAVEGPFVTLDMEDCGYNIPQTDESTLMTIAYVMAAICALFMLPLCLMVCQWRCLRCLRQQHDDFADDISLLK

One data set addresses human BACE1 (Homo sapiens, UniProt P56817). Put plainly: Fluorescent kinetic assay, human BACE1 (FRET peptide substrate WABC-6).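 Note: fluorescence monitored at excitation 320 nm and emission 420 nm over 30 min, with the substrate cleavage rate taken as the linear slope of the signal.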 Type of data set: biochemical. The conditions noted are these: fluorescent kinetic assay, 25 μM substrate WABC-6, pH 4.5, room temperature; read-out: IC50 (μM) BACE 1.
Usually IC50 stands for the concentration that inhibits the measured activity by half. As for `Cc1ccc(C)c(-c2ccc(-c3ccccc3)n2CC(=O)NC(=N)N)c1` [Example 450], the IC50 was in the range of 0.11 to 1 µM.
Regarding `N#CCc1ccc(-c2ccc(-c3ccccc3)n2CC(=O)NC(=N)N)cc1` [Example 451], the IC50 fell in the range of 1.1 to 5 µM.
The same measure, in the same setting: the same measure for `N=C(N)NC(=O)Cn1c(-c2ccccc2)ccc1-c1ccccc1C(F)(F)F` [Example 452]: 1.1 to 5 µM; for `N#CCc1cccc(-c2ccc(-c3ccccc3)n2CC(=O)NC(=N)N)c1` [Example 453]: 1.1 to 5 µM.
On the same count and under the same terms, as for `N#CCCc1ccc(-c2ccc(-c3ccccc3)n2CC(=O)NC(=N)N)cc1` [Example 454], the figure is 1.1 to 5 µM; as for `CCNC(=O)c1ccc(-c2ccc(-c3ccccc3)n2CC(=O)NC(N)=NCCCO)cc1` [Example 461, N-Ethyl-4-(1-{2-[N′-(3-hydroxy-propyl)-guanidino]-2-oxo-ethyl}-5-phenyl-1H-pyrrol-2-yl)-benzamide], 0.11 to 1 µM.
With `NC(=NC(=O)Cn1c(-c2ccccc2)ccc1-c1ccc(C(=O)NC2CC2)cc1)NCCCO` [Example 462], the IC50 was in the range of 0.11 to 1 µM.
As for `C=CCNC(=O)c1ccc(-c2ccc(-c3ccccc3)n2CC(=O)N=C(N)NCCCO)cc1` [Example 463], the IC50 was 0.11 to 1 µM.
Take `NC(=NC(=O)Cn1c(-c2ccccc2)ccc1-c1ccc(C(=O)NCCO)cc1)NCCCO` [Example 464]: the IC50 lay within 0.11 to 1 µM.
For the compound `N#CCCNC(=O)c1ccc(-c2ccc(-c3ccccc3)n2CC(=O)N=C(N)NCCCO)cc1` [Example 465], the IC50 was in the range of 0.11 to 1 µM.
Consider `CCCNC(=O)c1ccc(-c2ccc(-c3ccccc3)n2CC(=O)N=C(N)NCCCO)cc1` [Example 467], for which the concentration for half-maximal inhibition (IC50) lay within 0.11 to 1 µM.
`COCCNC(=O)c1ccc(-c2ccc(-c3ccccc3)n2CC(=O)N=C(N)NCCCO)cc1` [Example 468]: the IC50 is 0.11 to 1 µM.
Turning to `CCC(C)NC(=O)c1ccc(-c2ccc(-c3ccccc3)n2CC(=O)N=C(N)NCCCO)cc1` (stereo not shown) [Example 469], the IC50 was 0.11 to 1 µM.
For `C=CCN(C)C(=O)c1ccc(-c2ccc(-c3ccccc3)n2CC(=O)N=C(N)NCCCO)cc1` [Example 470], the concentration for half-maximal inhibition (IC50) was 0.11 to 1 µM.
Consider `NC(=NC(=O)Cn1c(-c2ccccc2)ccc1-c1ccc(C(=O)NCC(F)(F)C(F)(F)F)cc1)NCCCO` [Example 472], for which the IC50 lay within 1.1 to 5 µM.
`CCC[C@H]1CC[C@H](c2ccc(-c3ccccc3)n2CC(=O)/N=C(\N)NCCCC#N)CC1` [Example 473, N-{(1E)-amino[(3-cyanopropyl)amino]methylene}-2-[2-phenyl-5-(trans-4-propylcyclohexyl)-1H-pyrrol-1-yl]acetamide]: the 50% inhibitory concentration (IC50) fell in the range of 1.1 to 5 µM.
Regarding `N#CCCCNC(=N)NC(=O)Cn1c(-c2ccccc2)ccc1C1CCCCC1` [Example 474, N-(3-Cyano-propyl)-N′-[2-(2-cyclohexyl-5-phenyl-pyrrol-1-yl)-acetyl]-guanidine], the concentration for half-maximal inhibition (IC50) lay within 1.1 to 5 µM.

Tested on in another data set: not given
Test: not given
Conditions: not given
By melting point is commonly meant the temperature, or range, at which the solid turns liquid. `NC(N)=NC(=O)Cn1c(C(=O)c2ccccc2)ccc1-c1ccccc1` [Example 455, N″-[(2-benzoyl-5-phenyl-1H-pyrrol-1-yl)acetyl]guanidine] yielded a melting point of 201 to 203 °C.
`N=C(N)NC(=O)Cn1c(C(=O)c2ccco2)ccc1-c1ccccc1` [Example 456]: the melting point lay in the range of 175 to 177 °C.
For `N=C(N)NC(=O)Cn1c(Cc2ccccc2)ccc1-c1ccccc1` [Example 458, N-[(2-benzyl-5-phenyl-1H-pyrrol-1-yl)acetyl]guanidine], the melting point fell in the range of 155 to 158 °C.
In the case of `N=C(N)NC(=O)Cn1c(Cc2ccco2)ccc1-c1ccccc1` [Example 459, N-[amino(imino)methyl]-2-[2-(2-furylmethyl)-5-phenyl-1H-pyrrol-1-yl]acetamide], the melting point lay in the range of 80 to 82 °C.
Still for that read-out and setting: the same measure for `N=C(N)NC(=O)Cn1c(Cc2cccs2)ccc1-c1ccccc1` [Example 460, N-[amino(imino)methyl]-2-[2-phenyl-5-(thien-2-ylmethyl)-1H-pyrrol-1-yl]acetamide]: 99 to 120 °C.
